Results published in PubChem BioAssay AID296 (DTP/NCI, 2004).
“And” between values parts separate entries of the source, which are not always exact repeats. Identical values can stand only once. Results filed as inconclusive are left out.

System: MX-1 breast xenograft, nude mice, tumor weight T/C
Assay: NCI In Vivo Anticancer Drug Screen. Data for tumor model Human Mammary Carcinoma MX-1 Xenograft (intrarenal inoculation) in NU/NU Swiss (nude) mice
Details: endpoint: mean tumor weight change, higher = larger tumour
How it was run: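 Tumor-bearing mice were treated with test compound alongside a vehicle-treated control group. Survival or tumor size was measured, and activity is expressed as the treated-group value divided by the control-group value.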

[1] = dose: 300.0 mg/kg/injection, schedule: Q04DX003 (sc), vehicle: Klucel (hydroxypropylcellulose) (HPC)
[2] = dose: 600.0 mg/kg/injection, schedule: Q04DX003 (sc), vehicle: Klucel (hydroxypropylcellulose) (HPC)
[3] = dose: 1200.0 mg/kg/injection, schedule: Q04DX003 (sc), vehicle: Klucel (hydroxypropylcellulose) (HPC)
[4] = dose: 150.0 mg/kg/injection, schedule: Q04DX003 (sc), vehicle: saline with Tween-80
[5] = dose: 300.0 mg/kg/injection, schedule: Q04DX003 (sc), vehicle: saline with Tween-80
[6] = dose: 1200.0 mg/kg/injection, schedule: Q04DX003 (sc), vehicle: saline with Tween-80
[7] = dose: 600.0 mg/kg/injection, schedule: Q04DX003 (sc), vehicle: saline with Tween-80
[8] = dose: 100.0 mg/kg/injection, schedule: Q01DX010 (sc), vehicle: saline
[9] = dose: 300.0 mg/kg/injection, schedule: Q04DX003 (sc), vehicle: saline
[10] = dose: 600.0 mg/kg/injection, schedule: Q04DX003 (sc), vehicle: saline
[11] = dose: 1200.0 mg/kg/injection, schedule: Q04DX003 (sc), vehicle: saline
[12] = dose: 300.0 mg/kg/injection, schedule: Q04DX003 (sc), vehicle: suspension in saline

Cc1cc(Nc2ccc3c(c2)OCO3)c2cc3c(cc2n1)OCO3
T/C [1]: 61 % of control
T/C [2]: 81 % of control
T/C [3]: 81 % of control
T/C (dose: 2400.0 mg/kg/injection, schedule: Q04DX003 (sc), vehicle: Klucel (hydroxypropylcellulose) (HPC)): 92 % of control

CCN(CC)c1ccc2[nH]c3c(C(N)=O)cc(=O)c(=O)c=3oc2c1
T/C [4]: 88 % of control
T/C [5]: 84 % of control
T/C [6]: 101 % of control

CCCCN(CCCC)C(Cl)=Nc1ccccc1
T/C (dose: 800.0 mg/kg/injection, schedule: Q04DX003 (sc), vehicle: other): 89 % of control
T/C (dose: 1600.0 mg/kg/injection, schedule: Q04DX003 (sc), vehicle: other): 124 % of control

C[Si](C)(C)n1nnn(-c2ccccc2)c1=O
T/C (dose: 75.0 mg/kg/injection, schedule: Q04DX003 (sc), vehicle: saline with Tween-80): 90 % of control
T/C [4]: 71 % of control
T/C [7]: 91 % of control

C[N+](C)(C)c1ncnc2nc[nH]c12
T/C (dose: 50.0 mg/kg/injection, schedule: Q01DX010 (sc), vehicle: saline): 57 % of control
T/C [8]: 38 % of control

OCCCN1CCCCC1CO (stereo not drawn)
T/C [9]: 85 % of control
T/C [10]: 84 % of control
T/C [11]: 98 % of control

Cc1nc(N)nc(N)c1-c1ccc(Cl)c(Cl)c1
T/C (dose: 0.47 mg/kg/injection, schedule: Q04DX003 (sc), vehicle: saline): 100 % of control
T/C (dose: 0.94 mg/kg/injection, schedule: Q04DX003 (sc), vehicle: saline): 80 % of control
T/C (dose: 3.0 mg/kg/injection, schedule: Q04DX003 (sc), vehicle: saline): 84 % of control
T/C (dose: 3.75 mg/kg/injection, schedule: Q04DX003 (sc), vehicle: saline): 102 % of control
T/C (dose: 6.0 mg/kg/injection, schedule: Q04DX003 (sc), vehicle: saline): 107 % of control
T/C (dose: 12.0 mg/kg/injection, schedule: Q04DX003 (sc), vehicle: saline): 87 % of control

CCOC(=O)C(CC(C)C)NC(=O)C(Cc1ccc(N(CCCl)CCCl)cc1)NC(C)=O (stereo not drawn)
T/C (dose: 37.5 mg/kg/injection, schedule: Q04DX003 (sc), vehicle: saline with Tween-80): 50 % of control
T/C [7]: -97 % of control and -96 % of control

O=Cc1ccc(C(Cl)(Cl)Cl)cc1
T/C (dose: 100.0 mg/kg/injection, schedule: Q01DX010 (sc), vehicle: saline with Tween-80): 182 % of control
T/C (dose: 400.0 mg/kg/injection, schedule: Q01DX010 (sc), vehicle: saline with Tween-80): 120 % of control
T/C (dose: 800.0 mg/kg/injection, schedule: Q01DX010 (sc), vehicle: saline with Tween-80): 46 % of control

c1cc[c]([Sn][c]2ccccc2)cc1
T/C (dose: 20.0 mg/kg/injection, schedule: Q01DX010 (sc), vehicle: saline): 112 % of control
T/C (dose: 40.0 mg/kg/injection, schedule: Q01DX010 (sc), vehicle: saline): 84 % of control
T/C (dose: 80.0 mg/kg/injection, schedule: Q01DX010 (sc), vehicle: saline): 74 % of control
T/C (dose: 160.0 mg/kg/injection, schedule: Q01DX010 (sc), vehicle: saline): 115 % of control

COC12C(COC(N)=O)C3=C(C(=O)C(C)=C(N)C3=O)N1CC1C2N1C (stereo not drawn)
T/C (dose: 8.0 mg/kg/injection, schedule: Q01DX010 (sc), vehicle: saline): -96 % of control and -95 % of control

C=C(c1ccc(OC)c(OC)c1)c1nccc2cc(OC)c(OC)cc12
T/C (dose: 150.0 mg/kg/injection, schedule: Q04DX003 (sc), vehicle: Klucel (hydroxypropylcellulose) (HPC)): 91 % of control
T/C [1]: 71 % of control
T/C [2]: 89 % of control
T/C [3]: 54 % of control

C=CS(C=C)=NS(=O)(=O)c1ccc(C)cc1
T/C (dose: 18.75 mg/kg/injection, schedule: Q04DX003 (sc), vehicle: Klucel (hydroxypropylcellulose) (HPC)): 64 % of control
T/C (dose: 37.5 mg/kg/injection, schedule: Q04DX003 (sc), vehicle: Klucel (hydroxypropylcellulose) (HPC)): 87 % of control

C(CC1CO1)C1CO1 (stereo not drawn)
T/C [8]: -59 % of control and -41 % of control
T/C (dose: 150.0 mg/kg/injection, schedule: Q04DX003 (sc), vehicle: suspension in saline): 1 % of control and 11 % of control
T/C [12]: 4 % of control

BrC[P+](CBr)(CBr)CBr
T/C (dose: 100.0 mg/kg/injection, schedule: Q04DX003 (sc), vehicle: saline with Tween-80): 105 % of control
T/C (dose: 200.0 mg/kg/injection, schedule: Q04DX003 (sc), vehicle: saline with Tween-80): 117 % of control
T/C (dose: 400.0 mg/kg/injection, schedule: Q04DX003 (sc), vehicle: saline with Tween-80): 111 % of control

Cc1cc2nc3c(=O)[nH]c(=O)nc-3n(CC(O)C(O)C(O)C(O)CO)c2cc1C (stereo not drawn)
T/C [5]: 93 % of control
T/C [7]: 89 % of control
T/C [6]: 89 % of control
T/C (dose: 2400.0 mg/kg/injection, schedule: Q04DX003 (sc), vehicle: saline with Tween-80): 91 % of control

N=c1nc2n(cc1F)[C@@H]1O[C@H](CO)[C@@H](O)[C@@H]1O2
T/C [12]: 104 % of control
T/C (dose: 600.0 mg/kg/injection, schedule: Q04DX003 (sc), vehicle: suspension in saline): 89 % of control
T/C (dose: 1200.0 mg/kg/injection, schedule: Q04DX003 (sc), vehicle: suspension in saline): 117 % of control

COc1cc2c(c(OC)c1OC)-c1ccc(OC)c(=O)cc1[C@@H](NC(C)=O)CC2
T/C (dose: 0.25 mg/kg/injection, schedule: Q01DX010 (sc), vehicle: saline): 94 % of control
T/C (dose: 0.5 mg/kg/injection, schedule: Q01DX010 (sc), vehicle: saline): 30 % of control

CNc1nc(NC)nc(NC)n1
T/C (dose: 25.0 mg/kg/injection, schedule: Q01DX010 (ip), vehicle: Klucel (hydroxypropylcellulose) (HPC)): 164 % of control
T/C (dose: 100.0 mg/kg/injection, schedule: Q01DX010 (ip), vehicle: Klucel (hydroxypropylcellulose) (HPC)): 61 % of control
T/C (dose: 100.0 mg/kg/injection, schedule: Q01DX010 (sc), vehicle: Klucel (hydroxypropylcellulose) (HPC)): 93 % of control
T/C (dose: 200.0 mg/kg/injection, schedule: Q01DX010 (ip), vehicle: Klucel (hydroxypropylcellulose) (HPC)): 40 % of control

COc1cccc2c1C(=O)c1c(O)c3c(c(O)c1C2=O)C[C@@](O)(C(=O)CO)C[C@@H]3OC1CC(N)C(O)C(C)O1 (stereo partly drawn)
T/C (dose: 0.25 mg/kg/injection, schedule: Q01DX010 (ip), vehicle: water): 46 % of control
T/C (dose: 0.5 mg/kg/injection, schedule: Q01DX010 (ip), vehicle: water): 37 % of control
T/C (dose: 0.75 mg/kg/injection, schedule: Q01DX010 (sc), vehicle: saline): 159 % of control
T/C (dose: 1.0 mg/kg/injection, schedule: Q01DX010 (ip), vehicle: water): 10 % of control
T/C (dose: 1.5 mg/kg/injection, schedule: Q01DX010 (sc), vehicle: saline): 84 % of control
T/C (dose: 3.0 mg/kg/injection, schedule: Q01DX010 (sc), vehicle: saline): 94 % of control
T/C (dose: 4.0 mg/kg/injection, schedule: Q04DX003 (sc), vehicle: water): 61 % of control
T/C (dose: 6.0 mg/kg/injection, schedule: Q01DX010 (sc), vehicle: saline): 52 % of control
T/C (dose: 6.0 mg/kg/injection, schedule: Q01DX010 (sc), vehicle: water): 69 % of control
T/C (dose: 8.0 mg/kg/injection, schedule: Q04DX003 (sc), vehicle: water): 61 % of control

CNC(=O)c1cccc2c(Nc3ccc(NS(C)(=O)=O)cc3OC)c3cccc(C)c3nc12
T/C (dose: 50.0 mg/kg/injection, schedule: Q04DX003 (sc), vehicle: water): 111 % of control
T/C (dose: 100.0 mg/kg/injection, schedule: Q04DX003 (sc), vehicle: water): 73 % of control
T/C (dose: 200.0 mg/kg/injection, schedule: Q04DX003 (sc), vehicle: water): 31 % of control

NC(CCC(=O)NC(CS)C(=O)NCC(=O)O)C(=O)O (stereo not drawn)
T/C [9]: 87 % of control
T/C [10]: 93 % of control
T/C [11]: 104 % of control
T/C (dose: 2400.0 mg/kg/injection, schedule: Q04DX003 (sc), vehicle: saline): 89 % of control

O=c1[nH]c2c(ccc3cnccc32)c2c1CCC2
T/C (dose: 50.0 mg/kg/injection, schedule: Q04DX003 (sc), vehicle: suspension in saline): 71 % of control
T/C (dose: 200.0 mg/kg/injection, schedule: Q04DX003 (sc), vehicle: suspension in saline): 70 % of control
T/C (dose: 400.0 mg/kg/injection, schedule: Q04DX003 (sc), vehicle: suspension in saline): 100 % of control
